{
  "source": "patent US20040234588A1",
  "about": "(priority 2000, published 2004)",
  "key": {"[1]": {"type": "physicochemical"}, "[2]": {"system": "Human glioma cell line SF-767", "type": "cell-based", "details": "cells pretreated with chloroquine 30 minutes at 37° C., nanoemulsion/p-PLL/DNA complex, two quantities"}, "[3]": {"system": "human glioma cells 767 SF", "type": "cell-based", "details": "for Concentration of B in the cells after 18 hrs incubation: initial B in the media 38 μg"}, "[4]": {"type": "physicochemical", "details": "after 38 days at 4° C., HPLC"}, "rat 9L glioma cells": {"system": "rat 9L glioma cells", "type": "cell-based"}},
  "note": "Where two headings read alike, the source gives them in different places.",
  "data": [
    {"compound": "C[C@@H]1[C@H](O)[C@@H](C)/C=C/C=C/C=C/C=C/C=C/C=C/C=C/[C@H](O[C@@H]2O[C@H](C)[C@@H](O)[C@H](N)[C@@H]2O)C[C@@H]2O[C@](O)(C[C@@H](O)C[C@@H](O)[C@H](O)CC[C@@H](O)C[C@@H](O)CC(=O)O[C@H]1C)C[C@H](O)[C@H]2C(=O)O", "note": "[AmpB, Amphotericin B]", "values": [
      {"measurement": "AmpB incorporated in the submicron emulsion system", "setting": "[1]; 10 mg AmpB added to 100 mg lipids", "value": 2.33, "unit": "mg"},
      {"measurement": "incorporated AmpB recovered with the first fraction", "setting": "[1]; first fraction, particle size 177 nm", "value": 72, "unit": "%"}
    ]},
    {"compound": "CCN(CC)CCCC(C)Nc1ccnc2cc(Cl)ccc12", "note": "(stereo not drawn) [chloroquine]", "values": [
      {"measurement": "effect on transfection efficiency (β-galactosidase activity)", "setting": "[2]", "value": "greatly increased the transfection efficiency"}
    ]},
    {"compound": "cholesteryl 1,12-dicarba-closo-dodecaborane 1-carboxylate [BCH]", "values": [
      {"measurement": "uptake in FBS relative to LPDS", "setting": "[3]; FBS (lipoproteins present) vs LPDS (no lipoproteins)", "value": "more than triple"},
      {"measurement": "Concentration of B in the cells after 18 hrs incubation", "setting": "[3]; FBS media", "value": "57.6 ± 15.5", "unit": "μg/g cells"},
      {"measurement": "Concentration of B in the cells after 18 hrs incubation", "setting": "[3]; LPDS media", "value": "14.7 ± 3.5", "unit": "μg/g cells"},
      {"measurement": "initial BCH recovered from the formulation", "setting": "[4]", "value": "about 85%"},
      {"measurement": "Concentration of B in the cells after 18 hrs incubation", "setting": "rat 9L glioma cells; High concentration: initial B in the media 16.5 μg/ml", "value": "61 ± 13", "unit": "μg/g cells"},
      {"measurement": "Concentration of B in the cells after 18 hrs incubation", "setting": "rat 9L glioma cells; Low concentration: initial B in the media 8.25 μg/ml", "value": "50 ± 10", "unit": "μg/g cells"}
    ]}
  ]
}
